Converted amounts (≈) assume the structure as drawn. Blank lines part the entries; values can stand above or below the compound they belong to.
What was measured:
Plasmodium falciparum = test: Antimalarial activity against asexual blood stage Plasmodium falciparum infected in RBC measured after 72 hrs by LDH release assay; type: functional, organism-based; details: Erythrocyte
Plasmepsin IX = target: T1, Plasmepsin IX (Plasmodium falciparum, UniProt Q8ILG2); test: Inhibition of Plasmodium falciparum 3D7 HA-glms-tagged PMIX using DABCYL-HSFIQEGKEE-EDANS as substrate measured after 2 hrs by FRET assay
T1 sequence (Q8ILG2 whole entry): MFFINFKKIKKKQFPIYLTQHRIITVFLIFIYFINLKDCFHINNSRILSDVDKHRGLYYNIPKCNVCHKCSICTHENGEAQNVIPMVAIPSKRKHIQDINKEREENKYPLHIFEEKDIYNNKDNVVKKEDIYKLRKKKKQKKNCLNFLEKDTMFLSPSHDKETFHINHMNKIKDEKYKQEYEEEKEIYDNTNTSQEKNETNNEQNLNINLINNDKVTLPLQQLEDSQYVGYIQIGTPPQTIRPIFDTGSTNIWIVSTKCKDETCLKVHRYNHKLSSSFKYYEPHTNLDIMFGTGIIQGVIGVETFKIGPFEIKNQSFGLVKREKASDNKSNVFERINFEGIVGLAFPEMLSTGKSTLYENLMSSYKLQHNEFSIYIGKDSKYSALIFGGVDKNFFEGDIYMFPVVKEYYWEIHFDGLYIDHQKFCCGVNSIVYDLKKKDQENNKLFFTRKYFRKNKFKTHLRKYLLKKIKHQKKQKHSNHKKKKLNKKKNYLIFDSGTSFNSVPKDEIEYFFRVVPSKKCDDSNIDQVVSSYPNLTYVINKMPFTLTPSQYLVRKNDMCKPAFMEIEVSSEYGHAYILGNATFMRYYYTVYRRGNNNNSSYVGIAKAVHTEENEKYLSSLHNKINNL

Plasmepsin X = Plasmepsin X (Plasmodium falciparum (isolate 3D7), UniProt Q8IAS0); test: Inhibition of Plasmodium falciparum 3D7 HA-glms-tagged PMX using DABCYL-HSFIQEGKEE-EDANS as substrate measured after 2 hrs by FRET assay
[1] = Volume of distribution in mouse; type: ADME, organism-based; details: in vivo
[2] = Plasma clearance in mouse; type: ADME, organism-based
[3] = Lipophilicity, log D of compound at pH 7.4; type: physicochemical; details: buffer
[4] = Protein binding in rat plasma; type: ADME, cell-free; details: read-out: PPB (converted)
[5] = Apparent permeability across apical to basolateral side in MDCK cells; type: ADME, cell-based, Canis lupus familiaris; details: dog
[6] = Unbound clearance in rat; type: ADME; details: in vivo
[7] = Mean residence time in rat; type: ADME; details: in vivo
[8] = Unbound volume of distribution in mouse; type: ADME, organism-based; details: in vivo
[9] = Oral bioavailability in rat; type: ADME, organism-based; details: in vivo
[10] = Oral bioavailability in mouse; type: ADME, organism-based; details: in vivo
[11] = Unbound plasma clearance in mouse; type: ADME, organism-based; details: in vivo
[12] = Plasma clearance in rat; type: ADME
[13] = Mean residence time in mouse; type: ADME, organism-based; details: in vivo
[14] = Unbound volume of distribution in rat; type: ADME; details: in vivo
[15] = Volume of distribution in rat; type: ADME; details: in vivo
[16] = Kinetic solubility of the compound; type: physicochemical; details: read-out: Kinetic_solubility
[17] = Protein binding in mouse plasma; type: ADME, cell-free; details: read-out: PPB (converted)
[18] = target: Plasmepsin X (Plasmodium falciparum (isolate 3D7)) (UniProt Q8IAS0); test: Inhibition of Plasmodium falciparum 3D7 HA-glms-tagged PMX at 10 nM using DABCYL-HSFIQEGKEE-EDANS as substrate measured after 2 hrs by FRET assay relative to control
[19] = target: T2, Plasmepsin IX (Plasmodium falciparum) (UniProt Q8ILG2); test: Inhibition of Plasmodium falciparum 3D7 HA-glms-tagged PMIX at 10 nM using DABCYL-HSFIQEGKEE-EDANS as substrate measured after 2 hrs by FRET assay relative to control
T2 sequence (whole entry): T1 sequence (Q8ILG2 whole entry)

Plasmepsin X, sequence (Q8IAS0 whole entry): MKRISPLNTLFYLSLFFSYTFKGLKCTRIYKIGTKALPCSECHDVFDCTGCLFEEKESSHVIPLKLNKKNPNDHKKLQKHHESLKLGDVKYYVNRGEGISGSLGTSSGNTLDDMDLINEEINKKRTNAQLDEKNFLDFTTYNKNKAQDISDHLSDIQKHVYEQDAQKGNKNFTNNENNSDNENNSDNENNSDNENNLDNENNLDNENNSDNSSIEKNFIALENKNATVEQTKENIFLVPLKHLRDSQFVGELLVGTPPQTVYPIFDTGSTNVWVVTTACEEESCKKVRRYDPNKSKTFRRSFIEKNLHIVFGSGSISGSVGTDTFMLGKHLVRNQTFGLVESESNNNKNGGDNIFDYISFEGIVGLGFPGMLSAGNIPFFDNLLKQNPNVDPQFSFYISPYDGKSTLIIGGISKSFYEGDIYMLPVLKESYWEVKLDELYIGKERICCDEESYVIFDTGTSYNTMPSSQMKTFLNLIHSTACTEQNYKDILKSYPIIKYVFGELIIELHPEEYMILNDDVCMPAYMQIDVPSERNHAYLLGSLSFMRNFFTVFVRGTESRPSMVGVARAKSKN
Plasmepsin X (Plasmodium falciparum (isolate 3D7)), sequence (Q8IAS0 whole entry): as above

EC50 (Plasmodium falciparum): > 1000 nM
Structure (SMILES): C[C@H](NC(=O)c1cc(F)cc(CN2C(=N)NC(C)(C)CC2=O)c1)c1ccccc1

EC50 (Plasmodium falciparum): 1.5 nM
Structure (SMILES): CC(C)[C@]1(C)CC(=O)N(Cc2cccc(C(=O)N[C@H]3CCOc4ccccc43)c2)C(=N)N1

IC50 (Plasmepsin IX): 12 nM | IC50 (Plasmepsin X): 0.4 nM | EC50 (Plasmodium falciparum): 1.4 nM
Structure (SMILES): CCC1(CC)CC(=O)N([C@@H]2CCOc3ccc(C(=O)N[C@@H]4c5ccccc5OC4(C)C)cc32)C(=N)N1

IC50 (Plasmepsin IX): 24 nM | IC50 (Plasmepsin X): 0.3 nM | EC50 (Plasmodium falciparum): 18 nM
Structure (SMILES): CCC1(CC)CC(=O)N([C@@H]2CCOc3ccc(C(=O)N[C@H]4CCS(=O)(=O)c5ccccc54)cc32)C(=N)N1

EC50 (Plasmodium falciparum): 64 nM
Structure (SMILES): CC(C)[C@]1(C)CC(=O)N(Cc2cccc(C(=O)NC3CCNc4ccccc43)c2)C(=N)N1 (mixture of isomers)

EC50 (Plasmodium falciparum): 690 nM
Structure (SMILES): CC(C)C[C@@H](c1ccc(C(F)(F)F)c(C(=O)N2Cc3nccnc3C2)c1)N1C(=N)N[C@](CC2CC2)(c2ccccc2)CC1=O

EC50 (Plasmodium falciparum): 440 nM
Structure (SMILES): CC(C)[C@]1(C)CC(=O)N([C@@H](c2ccccc2)c2cccc(C(=O)N[C@@H](C)c3ccccc3)c2)C(=N)N1

EC50 (Plasmodium falciparum): 8.7 nM
Structure (SMILES): CCC1(CC)CC(=O)N([C@H](CCN2CCCC2)c2cccc(C(=O)N[C@@H](C)c3ccccc3)c2)C(=N)N1

Vd [1]: 5.4 L/kg | IC50 (Plasmepsin IX): 2.2 nM | clearance [2]: 68 mL/min/kg | logD [3]: 2.1 | IC50 (Plasmepsin X): 0.07 nM | EC50 (Plasmodium falciparum): 2.5 nM | fraction unbound [4]: 0.152 | Papp A→B [5]: 8.8 ×10⁻⁶ cm/s | CL free [6]: 518 mL/min/kg | MRT [7]: 2.7 h | Vdu [8]: 102 L/kg | bioavailability [9]: 27% | bioavailability [10]: 4% | CL free [11]: 1278 mL/min/kg | clearance [12]: 79 mL/min/kg | MRT [13]: 1.3 h | Vdu [14]: 80 L/kg | Vd [15]: 12 L/kg | solubility kinetic [16]: 0.2 µM (≈ 0.0953 µg/mL) | fraction unbound [17]: 0.053
Structure (SMILES): CCC1(CC)CC(=O)N([C@@H]2CCOc3ccc(C(=O)NC4CCOc5ccccc54)cc32)C(=N)N1 (single isomer, unassigned)

EC50 (Plasmodium falciparum): 830 nM
Structure (SMILES): CCC1(CC)CC(=O)N([C@@H](c2ccccc2)c2cccc(C(=O)N[C@@H](C)c3ccccc3)c2)C(=N)N1

EC50 (Plasmodium falciparum): 53 nM
Structure (SMILES): CC(C)[C@]1(C)CC(=O)N(Cc2cccc(C(=O)NC3COCc4ccccc43)c2)C(=N)N1 (mixture of isomers)

EC50 (Plasmodium falciparum): > 1000 nM
Structure (SMILES): CC(NC(=O)c1cccc(CN2C(=N)N[C@](C)(C(C)C)CC2=O)c1)c1ccccn1 (mixture of isomers)

IC50 (Plasmepsin X): 1.9 nM | EC50 (Plasmodium falciparum): 4.6 nM
Structure (SMILES): CC(C)[C@]1(C)CC(=O)N([C@H](c2ccccc2)c2cccc(C(=O)N[C@@H](C)c3ccccc3)c2)C(=N)N1

Vd [1]: 2.3 L/kg | IC50 (Plasmepsin IX): 4.5 nM | clearance [2]: 36 mL/min/kg | logD [3]: 2.9 | IC50 (Plasmepsin X): 0.06 nM | EC50 (Plasmodium falciparum): 0.4 nM | fraction unbound [4]: 0.02 | Papp A→B [5]: 16.3 ×10⁻⁶ cm/s | CL free [6]: 5648 mL/min/kg | MRT [7]: 1.1 h | Vdu [8]: 204 L/kg | bioavailability [9]: 6% | bioavailability [10]: 14% | CL free [11]: 3148 mL/min/kg | clearance [12]: 103 mL/min/kg | MRT [13]: 1.1 h | Vdu [14]: 340 L/kg | Vd [15]: 6.7 L/kg | solubility kinetic [16]: 0.2 µM (≈ 0.0953 µg/mL) | fraction unbound [17]: 0.011
Structure (SMILES): CCC[C@H](c1cccc(C(=O)N[C@H]2CCOc3ccccc32)c1)N1C(=N)NC(CC)(CC)CC1=O

EC50 (Plasmodium falciparum): 65 nM
Structure (SMILES): CCC1(CC)CC(=O)N(Cc2ccnc(C(=O)N[C@H]3CCOc4ccccc43)n2)C(=N)N1

EC50 (Plasmodium falciparum): > 1000 nM
Structure (SMILES): CC(C)[C@]1(C)CC(=O)N(Cc2cccc(C(=O)N3Cc4ccccc4C3)c2)C(=N)N1

EC50 (Plasmodium falciparum): 308 nM
Structure (SMILES): CC(C)[C@]1(C)CC(=O)N(Cc2cccc(C(=O)N[C@@H](C)c3ccccc3)c2)C(=N)N1

inhibition [18]: 40% | EC50 (Plasmodium falciparum): 220 nM | inhibition [19]: 12%
Structure (SMILES): CCC1(CC)CC(=O)N([C@@H]2CCOc3ccc(C(=O)NC4CC(=O)Oc5ccccc54)cc32)C(=N)N1 (mixture of isomers)

EC50 (Plasmodium falciparum): 0.4 nM
Structure (SMILES): CCC1(CC)CC(=O)N(Cc2cccc(C(=O)N[C@H]3CCOc4ccccc43)c2)C(=N)N1

EC50 (Plasmodium falciparum): 210 nM
Structure (SMILES): CCC1(CC)CC(=O)N([C@H](CCO)c2cccc(C(=O)N[C@@H](C)c3ccccc3)c2)C(=N)N1

EC50 (Plasmodium falciparum): 68 nM
Structure (SMILES): CC(C)[C@]1(C)CC(=O)N(Cc2cccc(C(=O)NC3CCCc4ccccc43)c2)C(=N)N1 (mixture of isomers)

EC50 (Plasmodium falciparum): > 1000 nM
Structure (SMILES): C[C@H](NC(=O)c1cc(F)cc(CN2C(=N)NC(c3ccccc3)CC2=O)c1)c1ccccc1 (single isomer, unassigned)

IC50 (Plasmepsin IX): 68 nM | IC50 (Plasmepsin X): 0.6 nM | EC50 (Plasmodium falciparum): 2.8 nM
Structure (SMILES): CCC1(CC)CC(=O)N([C@@H]2CCOc3ccc(C(=O)N[C@H]4CCCOc5ccccc54)cc32)C(=N)N1

EC50 (Plasmodium falciparum): 340 nM
Structure (SMILES): CC(C)[C@]1(C)CC(=O)N(Cc2cc(F)cc(C(=O)N[C@@H](C)c3ccccc3)c2)C(=N)N1

From ChEMBL document CHEMBL5126668, “The Invention of WM382, a Highly Potent PMIX/X Dual Inhibitor toward the Treatment of Malaria” (ACS Med Chem Lett, 2022)
